Test results reported in patent US9394250B2, “Substituted pyrrolidines as factor xia inhibitors for the treatment thromboembolic diseases” (ONO PHARMACEUTICAL CO., LTD., priority 2012, dated 2016).
Structures can show the parent of a compound that is named as a salt. One block for each molecule: values may come before it.

How the values were obtained:
Format in all cases: biochemical
Human Factor XIa = Human Factor XIa (Homo sapiens (Human), UniProt P03951); test: Factor XIa enzyme activity, chromogenic substrate S-2366; details: purified human Factor XIa 0.1 U/mL, 300 μM S-2366, pH7.4; read-out: In vitro FXIa inhibitory activity IC50
Procedure: (§1) Inhibitory activities of compounds of the present invention against factor XIa, Xa, XIIa, IXa, VIIa, plasma kallikrein or thrombin were evaluated using appropriate purified proteases and synthetic substrates. The rate of hydrolysis of the chromogenic substrate by the relevant protease was continuously measured at 405 nm. Inhibitory activity against each enzyme was calculated as % inhibition using the equation described below. % Inhibition=[[(rate without compound)−(rate with compound)]/(rate without compound)]×100%. Each half maximal inhibitory concentration (IC50) value was determined by plotting the concentration of compound of the invention against the % inhibition. (1-1) Factor XIa Enzyme Activity
Human Factor XIa (Haematologic Technologies Inc.) activity was measured at an enzyme concentration of 0.1 U/mL in 150 mM NaCl, 5 mM KCl, 1 mg/mL PEG6000, 50 mM HEPES-NaOH (pH7.4) with 300 μM S-2366 (pyroGlu-Pro-Arg-pNA, Chromogenix).

human thrombin = human thrombin (Homo sapiens (Human), UniProt P00734); test: Thrombin enzyme activity, chromogenic substrate S-2366; details: human thrombin 0.12 U/mL, 300 μM S-2366, pH7.4; read-out: In vitro Thrombin inhibitory activity IC50
Procedure: as §1
(§2) Human Factor Xa (American Diagnostica Inc.) and human thrombin (Sigma) activities were measured at the enzyme concentrations of 0.18 U/mL and 0.12 U/mL, respectively in the same buffer containing 150 mM NaCl, 2 mg/mL PEG6000, 50 mM Tris-HCl (pH7.4), except that the reactions were started with 300 μM S-2222 ([…], Chromogenix) and 300 μM S-2366, respectively.

Human Factor Xa = Human Factor Xa (Homo sapiens (Human), UniProt P00742); test: Factor Xa enzyme activity, chromogenic substrate S-2222; details: human Factor Xa 0.18 U/mL, 300 μM S-2222, pH7.4; read-out: In vitro FXa inhibitory activity IC50
Procedure: as §1, §2

Chain of Human Factor XIa (P03951 388-625): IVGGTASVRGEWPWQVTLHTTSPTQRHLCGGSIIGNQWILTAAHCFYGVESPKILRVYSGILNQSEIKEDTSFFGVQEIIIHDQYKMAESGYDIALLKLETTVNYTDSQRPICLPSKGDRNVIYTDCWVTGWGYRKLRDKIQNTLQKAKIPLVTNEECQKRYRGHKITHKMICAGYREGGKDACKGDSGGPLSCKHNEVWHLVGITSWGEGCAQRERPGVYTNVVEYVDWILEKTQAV
Chain of Human Factor XIa (P03951 19-387 partner): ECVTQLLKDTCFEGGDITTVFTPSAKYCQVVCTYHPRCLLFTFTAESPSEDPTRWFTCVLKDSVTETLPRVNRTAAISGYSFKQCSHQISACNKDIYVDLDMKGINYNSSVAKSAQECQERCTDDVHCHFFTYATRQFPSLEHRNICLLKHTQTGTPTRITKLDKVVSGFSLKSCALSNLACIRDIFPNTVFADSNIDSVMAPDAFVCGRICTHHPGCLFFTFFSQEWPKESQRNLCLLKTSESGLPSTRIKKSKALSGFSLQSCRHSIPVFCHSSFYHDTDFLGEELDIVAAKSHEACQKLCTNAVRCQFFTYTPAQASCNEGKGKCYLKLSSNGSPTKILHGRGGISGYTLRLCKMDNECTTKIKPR
Chain of Human Factor Xa (P00742 235-488): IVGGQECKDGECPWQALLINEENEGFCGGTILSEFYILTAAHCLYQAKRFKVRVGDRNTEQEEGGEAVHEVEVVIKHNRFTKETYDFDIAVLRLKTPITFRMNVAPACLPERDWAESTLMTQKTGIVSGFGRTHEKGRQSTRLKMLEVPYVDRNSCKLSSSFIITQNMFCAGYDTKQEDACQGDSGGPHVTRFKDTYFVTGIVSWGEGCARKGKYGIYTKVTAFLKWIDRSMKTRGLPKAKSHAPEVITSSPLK
Chain of Human Factor Xa (P00742 41-179 partner): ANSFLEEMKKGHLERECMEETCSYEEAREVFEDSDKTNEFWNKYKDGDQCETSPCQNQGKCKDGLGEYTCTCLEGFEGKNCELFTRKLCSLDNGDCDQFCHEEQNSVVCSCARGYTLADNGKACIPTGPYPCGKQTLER

SMILES: CS(=O)(=O)N1CCN([C@H]2C[C@@H](C(=O)Nc3ccc(C(=O)O)cc3)N(C(=O)C3CCN(C(=N)N)CC3)C2)CC1 [Example 9, 4-[({(2S,4S)-1-[(1-carbamimidoyl-4-piperidinyl)carbonyl]-4-[4-(methylsulfonyl)-1-piperazinyl]-2-pyrrolidinyl}carbonyl)amino]benzoic acid bis(trifluoroacetate)]
IC50 (Human Factor XIa): 17 nM
IC50 (human thrombin): > 100 µM
IC50 (Human Factor Xa): > 100 µM

SMILES: CS(=O)(=O)N1CCN([C@H]2C[C@@H](C(=O)Nc3ccc(C(=O)O)cc3)N(C(=O)c3ccc(C(=N)N)cc3)C2)CC1 [Example 20, 4-[({(2S,4S)-1-(4-carbamimidoylbenzoyl)-4-[4-(methylsulfonyl)-1-piperazinyl]-2-pyrrolidinyl}carbonyl)amino]benzoic acid bis(trifluoroacetate)]
IC50 (Human Factor XIa): 3.2 nM
IC50 (human thrombin): > 100 µM
IC50 (Human Factor Xa): > 100 µM

SMILES: O=C(Nc1ccccc1)[C@@H]1C[C@H](N2CCN(S(=O)(=O)c3ccccc3)CC2)CN1C(=O)/C=C/c1cc(Cl)ccc1-n1cnnn1 [Example 39, (2S,4S)-1-{(2E)-3-[5-chloro-2-(1H-tetrazol-1-yl)phenyl]-2-propenoyl}-N-phenyl-4-[4-(phenylsulfonyl)-1-piperazinyl]-2-pyrrolidinecarboxamide]
IC50 (Human Factor XIa): 78 nM
IC50 (human thrombin): > 100 µM
IC50 (Human Factor Xa): > 100 µM

SMILES: O=C(Nc1ccc2nn[nH]c2c1)[C@@H]1C[C@H](N2CCOCC2)CN1C(=O)/C=C/c1cc(Cl)ccc1-n1cnnn1 [Example 43, (2S,4S)—N-(1H-benzotriazol-6-yl)-1-{(2E)-3-[5-chloro-2-(1H-tetrazol-1-yl)phenyl]-2-propenoyl}-4-(4-morpholinyl)-2-pyrrolidinecarboxamide trifluoroacetate]
IC50 (Human Factor XIa): 11 nM
IC50 (human thrombin): > 100 µM
IC50 (Human Factor Xa): > 100 µM

SMILES: C[C@H]1CN([C@H]2C[C@@H](C(=O)Nc3ccccc3)N(C(=O)/C=C/c3cc(Cl)ccc3-n3cnnn3)C2)CCN1S(N)(=O)=O [Example 57, (2S,4S)-1-{(2E)-3-[5-chloro-2-(1H-tetrazol-1-yl)phenyl]-2-propenoyl}-4-[(3S)-3-methyl-4-sulfamoyl-1-piperazinyl]-N-phenyl-2-pyrrolidinecarboxamide trifluoroacetate]
IC50 (Human Factor XIa): 27 nM
IC50 (human thrombin): > 100 µM
IC50 (Human Factor Xa): > 100 µM

SMILES: COC(=O)Nc1ccc(-c2cnc([C@@H]3C[C@H](C4CCN(S(C)(=O)=O)CC4)CN3C(=O)C3CCN(C(=N)N)CC3)[nH]2)cc1 [Example 69, methyl [4-(2-{(2S,4R)-1-[(1-carbamimidoyl-4-piperidinyl)carbonyl]-4-[1-(methylsulfonyl)-4-piperidinyl]-2-pyrrolidinyl}-1H-imidazol-5-yl)phenyl]carbamate dihydrochloride]
IC50 (Human Factor XIa): 7.4 nM
IC50 (human thrombin): > 100 µM
IC50 (Human Factor Xa): > 100 µM

SMILES: COC(=O)Nc1ccc(-c2[nH]c([C@@H]3C[C@H](C4CCN(S(C)(=O)=O)CC4)CN3C(=O)C3CCN(C(=N)N)CC3)nc2Cl)cc1 [Example 71, methyl [4-(2-{(2S,4R)-1-[(1-carbamimidoyl-4-piperidinyl)carbonyl]-4-[1-(methylsulfonyl)-4-piperidinyl]-2-pyrrolidinyl}-4-chloro-1H-imidazol-5-yl)phenyl]carbamate dihydrochloride]
IC50 (Human Factor XIa): 2.2 nM
IC50 (human thrombin): 94 µM
IC50 (Human Factor Xa): > 100 µM

SMILES: COC(=O)Nc1ccc(-c2[nH]c([C@@H]3C[C@H](C4CCN(S(C)(=O)=O)CC4)CN3C(=O)[C@H]3CC[C@H]([C@H](C)N)CC3)nc2Cl)cc1 [Example 86, methyl [4-(2-{(2S,4R)-1-({trans-4-[(1S)-1-aminoethyl]cyclohexyl}carbonyl)-4-[1-(methylsulfonyl)-4-piperidinyl]-2-pyrrolidinyl}-4-chloro-1H-imidazol-5-yl)phenyl]carbamate bis(trifluoroacetate)]
IC50 (Human Factor XIa): 9.9 nM
IC50 (human thrombin): > 100 µM
IC50 (Human Factor Xa): > 100 µM

Now from value to molecule:

IC50 (Human Factor XIa): 13 nM
IC50 (human thrombin): > 100 µM
IC50 (Human Factor Xa): > 100 µM
SMILES: O=C(O)c1ccc(NC(=O)[C@@H]2C[C@H](N3CCOCC3)CN2C(=O)/C=C/c2cc(Cl)ccc2-n2cnnn2)cc1 [Example 37, 4-({[(2S,4S)-1-{(2E)-3-[5-chloro-2-(1H-tetrazol-1-yl)phenyl]-2-propenoyl}-4-(4-morpholinyl)-2-pyrrolidinyl]carbonyl}amino)benzoic acid trifluoroacetate]

IC50 (Human Factor XIa): 14 nM
IC50 (human thrombin): > 100 µM
IC50 (Human Factor Xa): > 100 µM
SMILES: NC[C@H]1CC[C@H](C(=O)N2C[C@@H](N3CCN(S(=O)(=O)C4CC4)CC3)C[C@H]2C(=O)Nc2ccc(C(=O)O)cc2)CC1 [Example 55, 4-[({(2S,4S)-1-{[trans-4-(aminomethyl)cyclohexyl]carbonyl}-4-[4-(cyclopropylsulfonyl)-1-piperazinyl]-2-pyrrolidinyl}carbonyl)amino]benzoic acid bis(trifluoroacetate)]

IC50 (Human Factor XIa): 4.4 nM
IC50 (human thrombin): 37 µM
IC50 (Human Factor Xa): > 100 µM
SMILES: COC(=O)Nc1ccc(-c2cnc([C@@H]3C[C@H](C4CCN(S(C)(=O)=O)CC4)CN3C(=O)c3ccc(C(=N)N)cc3)[nH]2)cc1 [Example 73, methyl [4-(2-{(2S,4R)-1-(4-carbamimidoylbenzoyl)-4-[1-(methylsulfonyl)-4-piperidinyl]-2-pyrrolidinyl}-1H-imidazol-5-yl)phenyl]carbamate dihydrochloride]

IC50 (Human Factor XIa): 6.5 nM
IC50 (human thrombin): 40 µM
IC50 (Human Factor Xa): > 100 µM
SMILES: COC(=O)Nc1ccc(-c2[nH]c([C@@H]3C[C@H](C4CCN(S(C)(=O)=O)CC4)CN3C(=O)c3ccc(NC(=N)N)cc3)nc2Cl)cc1 [Example 79, methyl [4-(2-{(2S,4R)-1-(4-carbamimidamidobenzoyl)-4-[1-(methylsulfonyl)-4-piperidinyl]-2-pyrrolidinyl}-4-chloro-1H-imidazol-5-yl)phenyl]carbamate bis(trifluoroacetate)]

IC50 (Human Factor XIa): 5.4 nM
IC50 (human thrombin): 57 µM
IC50 (Human Factor Xa): > 100 µM
SMILES: COC(=O)Nc1ccc(-c2[nH]c([C@@H]3C[C@H](C4CCN(S(C)(=O)=O)CC4)CN3C(=O)N3CCN(C(=N)N)CC3)nc2Cl)cc1 [Example 88, methyl [4-(2-{(2S,4R)-1-[(4-carbamimidoyl-1-piperazinyl)carbonyl]-4-[1-(methylsulfonyl)-4-piperidinyl]-2-pyrrolidinyl}-4-chloro-1H-imidazol-5-yl)phenyl]carbamate bis(trifluoroacetate)]

IC50 (Human Factor XIa): 18 nM
IC50 (human thrombin): > 100 µM
IC50 (Human Factor Xa): > 100 µM
SMILES: Cn1cc(Cl)c2c(F)c(C(=O)N3C[C@@H](C4CCN(S(C)(=O)=O)CC4)C[C@H]3C(=O)Nc3ccc(C(=O)O)cc3)ccc21 [Example 93, 4-[({(2S,4R)-1-[(3-chloro-4-fluoro-1-methyl-1H-indol-5-yl)carbonyl]-4-[1-(methylsulfonyl)-4-piperidinyl]-2-pyrrolidinyl}carbonyl)amino]benzoic acid]

IC50 (Human Factor XIa): 5.4 nM
IC50 (human thrombin): > 33 µM
IC50 (Human Factor Xa): > 33 µM
SMILES: COC(=O)Nc1ccc(-c2[nH]c([C@@H]3C[C@H](C4CCN(S(C)(=O)=O)CC4)CN3C(=O)/C=C/c3cc(Cl)ccc3-n3cnnn3)nc2Cl)cc1 [Example 94, methyl [4-(4-chloro-2-{(2S,4R)-1-{(2E)-3-[5-chloro-2-(1H-tetraol-1-yl)phenyl]-2-propenoyl}-4-[1-(methylsulfonyl)-4-piperidinyl]-2-pyrrolidinyl}-1H-imidazol-5-yl)phenyl]carbamate]

IC50 (Human Factor XIa): 4.2 nM
IC50 (human thrombin): > 100 µM
IC50 (Human Factor Xa): > 100 µM
SMILES: COC(=O)Nc1ccc(-c2[nH]c([C@@H]3C[C@H](C4CCN(S(C)(=O)=O)CC4)CN3C(=O)[C@H]3CC[C@H](CN)CC3)nc2Cl)cc1 [Example 96, methyl [4-(2-{(2S,4R)-1-{[4-(aminomethyl)cyclohexyl]carbonyl}-4-[1-(methylsulfonyl)-4-piperidinyl]-2-pyrrolidinyl}-4-chloro-1H-imidazol-5-yl)phenyl]carbamate bis(trifluoroacetate)]

IC50 (Human Factor XIa): 2.3 nM
IC50 (human thrombin): > 100 µM
IC50 (Human Factor Xa): > 100 µM
SMILES: COC(=O)Nc1ccc(-c2cnc([C@@H]3C[C@H](N4CCN(S(C)(=O)=O)CC4)CN3C(=O)C3CCN(C(=N)N)CC3)[nH]2)cc1 [Example 98, methyl [4-(2-(2S,4S)-1-[(1-carbamimidoyl-4-piperidinyl)carbonyl]-4-[4-(methylsulfonyl)-1-piperazinyl]-2-pyrrolidinyl-1H-imidazol-5-yl)phenyl]carbamate trihydrochloride]

IC50 (Human Factor XIa): 8.5 nM
IC50 (human thrombin): > 100 µM
SMILES: CS(=O)(=O)N1CCC([C@H]2C[C@@H](C(=O)Nc3ccc(C(=O)O)cc3)N(C(=O)c3ccc(C(=N)N)cc3)C2)CC1 [Example 111, 4-[({(2S,4R)-1-(4-carbamimidoylbenzoyl-4-[1-(methylsulfonyl)-4-piperidinyl]-2-pyrrolidinyl}carbonyl)amino]benzoic acid hydrochloride]
